Measured values from US7368287B2, “Use of L-α-lysophosphatidylcholine to obtain the differentiation of monocytes into mature dendritic cells in vitro” (Biomerieux, priority 2002, dated 2008).

Experiments:
[1] = tested on: BALB/c mice; test: Inflammation of the plantar foot pad (thickening of the foot); format: in vivo, mouse; conditions: after 24 h
Protocol: LPC is an inflammatory product—In this example, a solution of 100 to 500 nmol of LPC dissolved in 50 μl of PBS is injected into the plantar foot pad of BALB/c mice (Charles River Laboratories) on day 0. The plantar foot pads are measured using a micrometer before and after injection, up to the 10th day, and compared to the plantar foot pads of “control” mice, obtained by injection of PBS (50 μl). The intensity of the inflammation is reflected by the thickening of the foot. The maximum thickening is observed on the 1st day, 24 h after the injection.
INTRALIPID® blocks the inflammation and the immune response induced by LPC, in vivo. In this example, 3 batches of BALB/c mice are immunized against the hen egg lysozyme (HEL) antigen by injection of 50 μl of solution into the plantar foot pad. The “HEL” control batch receives 50 μg of HEL, the “HEL+Intralipid” batch receives a mixture of INTRALIPID® (45 μl) and of 50 μg of HEL (5 μl of a solution at 10 mg/ml). The “HEL+LPC” batch receives 50 μg of HEL with 350 nmol of LPC dissolved in PBS. The “HEL+LPC+Intralipid” batch receives 50 μg of HEL mixed with 350 nmol of LPC dissolved in 45 μl of INTRALIPID®. After 24 hours, the thickness of the foot pads is measured using a micrometer, and compared with the measurement taken before injection. The difference in thickness is proportional to the intensity of the inflammation.

[2] = tested on: PPARδ; test: PPAR binding activity by gel shift on nuclear proteins of treated monocytes; format: cell-based, human
Protocol: Next, the inventors investigated the transcription factors involved in the maturation process induced by LPC. In order to determine whether PPARs are involved in the LPC-induced maturation, the ability of the two transcription factors PPARγ and PPARδ to bind was analyzed using the gel shift technique. 3 isotypes of PPAR nuclear receptors (peroxisome proliferator-activated receptor) exist: α, γ and δ. PPARγs are the targets for molecules of the thiazolidinedione class, such as ciglitizone, used in the treatment of type II diabetes. PPARδs have a broader expression and can be repressors of PPARγs. The monocytes undergoing differentiation were incubated for two hours with a solution of LPC (40 μM) (“LPC” cells). “Control” cells are also obtained in the absence of LPC in the culture medium. After having harvested the cells, the nuclear proteins were extracted with the Nuclear extract Kit (Sigma). The nuclear proteins were then brought into contact with a ratioactively labeled probe containing a response element recognized by PPARs. […] The PPAR binding activity was determined by measuring the intensity of these bands. These activities are expressed as a percentage with respect to the “control” cells. […]
The activity of the PPARγ and PPARδ transcription factors was measured in these cells by the gel shift technique, as described above.
INTRALIPID® regulates PPARs in vitro. […] The cells were harvested after 1 h, 2 h or 8 h of incubation with INTRALIPID®, the nuclear proteins were extracted and the activity of PPARγ and PPARδ was determined as described in example 6.
Secondly, a solution of INTRALIPID® (50 μg/ml of phospholipids) was added to the culture medium on the 5th day of monocyte differentiation, 15 minutes before the addition of a solution of LPC (40 μM) (“LPC+Intralipid” cells). […] The cells were harvested after 2 h of incubation, the nuclear proteins were extracted and the activity of PPARγ and PPARδ was determined as described in example 6.

[3] = tested on: naïve allogenic T lymphocytes; test: Stimulation of IL-2 and γIFN secretion by allogenic T lymphocytes (mixed leukocyte reaction, ELISA); format: cell-based, human; parameters: unit not given here; conditions: for Secretion of IL-2 by T lymphocytes / Secretion of γIFN by T lymphocytes: after 4 days; for Secretion of γIFN by T lymphocytes: Table 3; for Dendritic cell-induced secretion of γIFN by T lymphocytes: Table 8
Protocol: The “control” and “LPC” cells used in this analysis are those obtained after 6 days of differentiation according to the protocol described in example 1.
Naïve allogenic T lymphocytes are isolated from human peripheral blood. Peripheral blood mononuclear cells are isolated by density gradient centrifugation (600 g, 20 minutes) in the presence of Ficoll-Hypaque. After elimination of the monocytes on a Percoll gradient, the peripheral blood lymphocytes are found in the dense fraction. The T lymphocytes are purified by immunomagnetic depletion using a cocktail of anti-CD19 (antibody 4G7) (Becton Dickinson, Francklin Lakes, N.J., USA), anti-CD16 (antibody 3G8), anti-CD56 (antibody NKH1), anti-glycophorin A (antibody 11E4B7.6) and anti-CD14 (antibody RMPO52), monoclonal antibodies sold by Beckman Coulter.
The purified T lymphocytes are cultured in flat-bottomed 96-well culture plates with the “control” or “LPC” cells.
2×10^5T cells are cultured in 200 μl of culture medium according to a monocytes differentiated in the presence or absence of LPC/T cells ratio (DC/LT ratio) of 1:5, 1:10 or 1:20. After 4 days, 50 μl of the culture supernatant are used to determine the secretion of IL-2 (interleukin 2) and of γIFN (gamma interferon) using an ELISA kit (Endogen, Woburn, Mass., USA).
The inventors then used a PPARγ agonist, ciglitizone. A solution of ciglitizone (Sigma, 50 μM) was added to the culture medium on the fifth day of monocyte differentiation, as described in example 1, 15 minutes before the addition of a solution of LPC (40 μM, for […]). The cells obtained are “LPC+ciglitizone” cells. “Ciglitizone” cells were obtained according to the same protocol, but in the absence of LPC, and “LPC” cells were obtained as described in example 1, in the absence of ciglitizone.
The functional ability of these cells (“control”, “ciglitazone” and “LPC+ciglitazone” cells) to stimulate T lymphocytes (LT) were then analyzed. These cells were cultured as described in example 4, in the presence of purified allogenic T lymphocytes. The secretion of γIFN was measured as in example 4.

L-α-lysophosphatidylcholine [LPC]
Thickening of the foot ([1]; LPC 100 nmol in 50 μl PBS into plantar foot pad): 0.35 mm
Thickening of the foot ([1]; LPC 200 nmol): 0.55 mm
Thickening of the foot ([1]; LPC 300 nmol): 0.725 mm
Thickening of the foot ([1]; LPC 400 nmol): 1.125 mm
Thickening of the foot ([1]; LPC 500 nmol): 1.075 mm
PPARδ binding activity ([2]; Table 6, LPC 40 μM, two hours, percentage with respect to control cells): 263%
PPARδ activity ([2]; Table 16, Intralipid 50 μg/ml phospholipids 15 minutes before LPC 40 μM, 2 h, control = 100%): 160%
Secretion of IL-2 by T lymphocytes ([3]; DC/LT ratio 0): 0
Secretion of IL-2 by T lymphocytes ([3]; DC/LT ratio 0.05): 23 ± 1
Secretion of IL-2 by T lymphocytes ([3]; DC/LT ratio 0.1): 47 ± 26
Secretion of IL-2 by T lymphocytes ([3]; DC/LT ratio 0.2): 173 ± 31
Secretion of γIFN by T lymphocytes ([3]; DC/LT ratio 0): 0
Secretion of γIFN by T lymphocytes ([3]; DC/LT ratio 0.05): 73 ± 47
Secretion of γIFN by T lymphocytes ([3]; DC/LT ratio 0.1): 439 ± 108
Secretion of γIFN by T lymphocytes ([3]; DC/LT ratio 0.2): 795 ± 19
Dendritic cell-induced secretion of γIFN by T lymphocytes ([3]; DC/LT ratio 0): 0
Dendritic cell-induced secretion of γIFN by T lymphocytes ([3]; DC/LT ratio 0.05): 750 ± 184
Dendritic cell-induced secretion of γIFN by T lymphocytes ([3]; DC/LT ratio 0.1): 899 ± 124
Dendritic cell-induced secretion of γIFN by T lymphocytes ([3]; DC/LT ratio 0.2): 1326 ± 248
